According to US20260325542A1, “CANCER TARGETING COMPLEX, AND COMPOSITION COMPRISING SAME FOR PREVENTING OR TREATING CANCER” (EWHA UNIVERSITY - INDUSTRY COLLABORATION FOUNDATION, priority 2023, published 2026):

Columns and labels:
cancer tissue = test: TUNEL analysis of excised cancer tissue; format: in vivo, mouse; details: cancer tissue excised after 15 days
Experimental: Cancer animal models were prepared by inoculating 1×10^6 4T1 cells into the left thigh of the mice, and raising them until the tumor volume reached 50-80 mm^3.
(§1) The control group was administered saline (10 mg/kg) once every 3 days for 15 days through the tail vein (total 4 administrations). The comparison group was administered ARV-771 (10 mg/kg) once every 3 days for 15 days through the tail vein (total 4 administrations). The example group was administered ECMal-PROTAC 10 mg/kg (wquiv. to ARV-771) of example 1 once every 3 days for 15 days through the tail vein (total 4 administrations).
(§2) The control group, the comparison group, and the example group were euthanized after 15 days, and major organs (heart, liver, lung, spleen, kidney) and cancer tissue were excised.
(§3) Furthermore, to analyze cancer cell apoptosis, TUNEL (terminal deoxynucleotidyl transferase dUTP nick end labeling) analysis was performed on cancer tissue excised from the control group, the comparison group, and the example group. Next, histological analysis was performed by H&E (hematoxylin & eosin) staining of the major organ tissues and cancer tissue of each excised group.

BRD4 = biological target: T1, BRD4 (Mus musculus, UniProt Q9ESU6); test: DAB staining of excised cancer tissue; format: in vivo; details: FIG. 34
T1 construct: Western blot after PROTAC (ARV-771 release, VHL recruiting)
Experimental: as §1
FIG. 34 is the result of DAB staining of cancer tissue excised from the control group, the comparison group, and the example group.

BRD4 and c-Myc = test: Immunofluorescence of excised cancer tissue (DAPI, anti-BRD4, anti-c-Myc); format: in vivo, mouse; details: vs comparison group and control group
Experimental: as §1
FIG. 33 is an image taken with a confocal laser scanning microscope after staining cancer tissue excised from the control group (Control, Saline), the comparison group (ARV-771, intravenous injection), and the example group (ECMal-PROTAC, intravenous injection) with DAPI, anti-BRD4, and anti-c-Myc.

[1] = tested on: organ tissue and cancer tissue; test: H&E histology of major organs and cancer tissue; format: in vivo, mouse; details: excised after 15 days
Experimental: as §1, §2, §3
According to FIG. 29, major organ tissue and cancer tissue were excised from the control group, the comparison group, and the example group after 15 days. The excised organ tissue and cancer tissue were stained with H&E (hematoxylin & eosin). The H&E stained tissue was observed using a BX51 optical microscope (Olympus, Tokyo, Japan) and a TCS SP8 confocal laser microscope.

## Cc1ncsc1-c1ccc([C@H](C)NC(=O)[C@@H]2C[C@@H](OC(=O)CCCCn3nnc4c3CCC3C(CC4)C3COC(=O)NCCOCCOCCNC(=O)CCN3C(=O)C=CC3=O)CN2C(=O)[C@@H](NC(=O)COCCCOCCNC(=O)C[C@@H]2N=C(c3ccc(Cl)cc3)c3c(sc(C)c3C)-n3c(C)nnc32)C(C)(C)C)cc1 (stereo partly drawn) [ECMal-PROTAC]
Cancer tissue
  cancer cell apoptosis (TUNEL): cancer cell apoptosis was induced throughout the entire cancer tissue
BRD4
  BRD4 deficiency (DAB staining): BRD4 deficiency was confirmed
BRD4 and c-Myc
  fluorescence signals related to c-Myc and BRD4: weaker fluorescence signals
[1]; H&E
  damage to the liver tissue: does not cause damage to the liver tissue
[1]
  damage in cancer tissue (H&E): strong damage
[1]; liver, lung, spleen, kidney, heart
  damage in organ tissue (H&E): No significant damage
